Test results taken from paper PMC9700728 (Nature Communications, 2022).
Each block holds one molecule with its values, some of them ahead of it.

Legend:
[1] = target: T1, rThC (recombinant thrombocorticin, ThC) (unclassified Corticium (in: sponges), UniProt C0HM62); assay: inhibition of rThC-induced Ba/F3-HuMpl cell proliferation; type: cell-based; settings: rThC 1 μg/mL, RPMI-1640 with 10% FBS, 37 °C, 4 days; competes with MPL glycan
T1 construct: N-terminal 6xHis-tag (modified pET28), expressed in E. coli BL21(DE3); 131 residues, 14 kDa; homodimer, sugar site at protomer interface
T1 sequence (C0HM62 1-131): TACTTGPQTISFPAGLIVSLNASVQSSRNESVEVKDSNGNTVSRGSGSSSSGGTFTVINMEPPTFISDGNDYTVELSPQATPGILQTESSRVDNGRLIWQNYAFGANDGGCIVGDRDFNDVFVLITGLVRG

BC2L-C-CTD = target: T2, BC2L-C-CTD (Burkholderia cenocepacia, UniProt B4EH86); assay: isothermal titration calorimetry; type: binding; settings: 20 mM HEPES-NaOH pH 8.0, 200 mM NaCl, 25 °C
T2 construct: gene BCAM0185; C-terminal domain of BC2L-C, N-terminal 6xHis-tag (modified pET28), expressed in E. coli BL21(DE3)
Description: isothermal titration calorimetry on BC2L-C-CTD | BC2L-C-CTD bound only to mannose

[2] = target: T1, rThC (recombinant thrombocorticin, ThC); assay: isothermal titration calorimetry; type: binding; settings: 5 mM CaCl2, 20 mM HEPES-NaOH pH 8.0, 200 mM NaCl, 25 °C; Ca2+-mediated site at dimer interface
[3] = target: human thrombopoietin receptor MPL on Ba/F3-HuMpl cells (human) (UniProt P40238)
[4] = target: T3, human thrombopoietin receptor MPL on Ba/F3-HuMpl cells (human, UniProt P40238 26-635); assay: cell-based or functional assay
T3 sequence (looked up): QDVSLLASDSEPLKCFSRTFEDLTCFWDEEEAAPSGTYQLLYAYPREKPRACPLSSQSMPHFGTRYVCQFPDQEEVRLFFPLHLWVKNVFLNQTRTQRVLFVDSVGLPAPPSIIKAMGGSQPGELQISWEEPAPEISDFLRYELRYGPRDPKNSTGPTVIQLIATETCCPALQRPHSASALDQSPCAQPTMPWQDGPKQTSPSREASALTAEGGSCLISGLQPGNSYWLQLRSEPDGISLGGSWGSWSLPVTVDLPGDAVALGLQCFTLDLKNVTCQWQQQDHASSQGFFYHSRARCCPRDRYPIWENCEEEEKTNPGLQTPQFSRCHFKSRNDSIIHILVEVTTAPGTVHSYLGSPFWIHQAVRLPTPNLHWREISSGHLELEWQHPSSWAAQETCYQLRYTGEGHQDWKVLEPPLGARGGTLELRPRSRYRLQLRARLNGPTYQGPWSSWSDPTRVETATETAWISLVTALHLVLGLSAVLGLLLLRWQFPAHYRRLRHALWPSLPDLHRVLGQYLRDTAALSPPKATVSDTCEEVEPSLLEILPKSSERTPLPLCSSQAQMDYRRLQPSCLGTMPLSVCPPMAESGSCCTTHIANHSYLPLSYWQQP

Molecule: OC[C@H]1OC(O)[C@@H](O)[C@@H](O)[C@@H]1O (stereo partly drawn) [D-mannose]
IC50 [1]: 6460 µM | Kd (BC2L-C-CTD): 17.7 ± 0.32 µM | KD [2]: 66.2 × 10 µM

IC50 [1]: 22.8 µM | Kd [2]: 4.72 µM
Molecule: C[C@@H]1OC(O)[C@@H](O)[C@H](O)[C@@H]1O (stereo partly drawn) [L-fucose]

Molecule: PA-IIL (from UniProt Q9HYN5 1-115) (natural protein)
proliferation of Ba/F3-HuMpl cells, EC50 [3]: 18.1 µg/mL

proliferation of Ba/F3-HuMpl cells, EC50 [4]: 0.26 µg/mL
B1: N-terminal His-tagged recombinant thrombocorticin (wild type) (natural protein, UniProt C0HM62 1-131, looked up)
chain: T1 sequence (C0HM62 1-131)
